Primed or numbered codes have the meaning given here. FAM = 5(6)-carboxyfluorescein; FAM″ = C-terminal FAM dye

The test system of this assay is NSC-34 cells. Nature of the assay: Evaluation on cell membrane permeability by flow cytometry. The assay is classed as cell-based, mouse. Conditions: median fluorescence intensity of FAM (detector FL2), 25 µM construct, 0.42% DMSO, 20 hours at 37°C, 5% CO2. Here is the method: As the eukaryotic cells, NSC-34 cells (mouse motor neuron-like hybrid cell line) were used and the cell membrane permeability of the samples 1 to 7 was analyzed. In Examples 1 to 7, the prepared sample solutions 1 to 7 were used, respectively, and in Example 8, a FAM solution was used.
The NSC-34 cells were cultured in 10% fetal bovine serum (FBS)-containing Dulbecco's modified Eagle's medium (DMEM (Cat No. 044-29765, manufactured by FUJIFILM Wako Pure Chemical Corporation)), which is a normal culture medium.
The NSC-34 cells that adhered to a culture plate were cleaned with PBS and then, a 0.25%-trypsin/EDTA solution was added thereto, and incubation was performed for three minutes at 37°C. After the incubation, the aforementioned 10% FBS-containing DMEM was added to deactivate trypsin and then, five-minute centrifugal separation was performed at 150 × g to precipitate the cells. After the supernatant generated by the centrifugal separation was removed, the 10% FBS-containing DMEM was added to the precipitate (cell pellet) to prepare a cell suspension of about 2 × 10^5 cells/mL. The cell suspension was added by 1 mL to a well of a commercially available six-hole (well) plate (manufactured by AGC TECHNO GLASS Co., Ltd.) so as to seed the cell (about 2 × 10^5 cells/well). In addition, the 6 mM sample solution 1 was diluted with the 10% FBS-containing DMEM to prepare the sample solution 1 in which the concentration of the sample 1 was 50 µM. Then, 1 mL of the 50 µM sample solution 1 was added to the well (that is, so that the concentration of the sample 1 became 25 µM and the DMSO concentration became 0.42% in the culture solution in the well). After that, the cell was incubated for 20 hours at 37°C under a 5% CO2 condition.
After the 20-hour incubation, the culture supernatant was removed from the well and the cells in the well were cleaned twice with 1 mL of PBS. Next, 200 µL of the 0.25% trypsin/EDTA solution was added to the well and the incubation was performed for three minutes at 37°C. After the incubation, 400 µL of the 10% FBS-containing DMEM was added to the well to deactivate the trypsin. Subsequently, the cell suspension in the well was transferred to a tube and the cells were collected. After that, 600 µL of PBS was added further to the well to clean the well. Then, PBS in the well was transferred to the tube, so that the cells remaining in the well were collected in the tube. This tube was subjected to five-minute centrifugal separation at 4°C under a condition of 210 × g. After the centrifugal separation, the supernatant was removed and the precipitate (cell pellet) was suspended (cleaned) with 1 mL of PBS, which was followed by the centrifugal separation under the same condition as that described above. After this operation was repeated twice, the supernatant was removed and thus, the cells (cell pellet) cultured in a culture medium containing the sample 1 were obtained.
Regarding the obtained cells (cell pellet), the cell membrane permeability of the sample 1 was analyzed using a flow cytometer. As the flow cytometer, On-Chip Flowcytometer (manufactured by On-Chip Biotechnologies Co., LTD.) was used.
For such an analysis, the obtained cell pellet was suspended with 100 µL of on-chip T buffer to prepare a cell suspension for analysis.
Using the aforementioned flow cytometer, gating based on forward scatter (FSC) and side scatter (SSC) was performed to set a gate about a cell group to be analyzed, and the fluorescence intensity was measured about the cell group in this gate. Note that the analysis was performed so that the cell group contained at least 10000 cells or more. The fluorescence intensity was measured using a fluorescence detector FL2 of the flow cytometer (optimum detection wavelength around 543 nm) capable of detecting the fluorescence wavelength of FAM. […]
For orientation: Flow cytometry measures light scatter and fluorescence of single cells or particles in a stream.
“Ac-KKRTLRKDERKKR-FAM (Ac-KKRTLRKDERKKR-{FAM}) [Example 1]” showed an MFI of 16.3. The value for 5(6)-carboxyfluorescein [Example 8] was 11; that for Ac-KKRTLRKDEDERKKR-FAM [Example 6] was 15.2. “Ac-KKRTLRKEEDDRKKR-FAM (Ac-KKRTLRKEEDDRKKR-{FAM}) [Example 4]” had an MFI of 14.3. In turn, “Ac-KKRTLRKDDEERKKR-FAM (Ac-KKRTLRKDDEERKKR-{FAM}) [Example 5]” showed an MFI of 14.8. As for “Ac-KKRTLRKEDEDRKKR-FAM (Ac-KKRTLRKEDEDRKKR-{FAM″}) [Example 3]”, the MFI was found to be 13.8. In the case of “Ac-KKRTLRKEDRKKR-FAM (Ac-KKRTLRKEDRKKR-{FAM}) [Example 2]”, the MFI was 15.7. The value for “Ac-KKRTLRKEDEDEDRKKR-FAM (Ac-KKRTLRKEDEDEDRKKR-{FAM}) [Example 7]” was 14.3.

Values taken from EP4559927A1, “CARRIER PEPTIDE FRAGMENT AND USE THEREOF” (Toagosei Co., Ltd., priority 2022, dated 2025).
